Each compound was assayed against SARS-CoV-2 Papain like protease (PLpro) (Severe acute respiratory syndrome coronavirus 2 (2019-nCoV) (SARS-CoV-2), UniProt P0DTD1) (assay: Papain Like Protease (PLpro) biochemical assay with profluorogenic substrate Z-RLRGG-AMC). Conditions: IC50 (μM), SARS-CoV-2 PLpro 6.25 nM, 25 μM Z-RLRGG-AMC substrate, 60 minute reaction.

SMILES | IC50 [µM]
Cc1ccc(N2CC3CC(C2)N3)cc1C(=O)N[C@H](C)c1cc(-c2cnn(C)c2)nc2ccccc12 [Example 251, 5-(3,6-diazabicyclo[3.1.1]heptan-3-yl)-2-methyl-N—((R)-1-(2-(1-methyl-1H-pyrazol-4-yl)quinolin-4-yl)ethyl)benzamide] | 0.005
Cc1ccc(N2CC3CC(C2)N3C)cc1C(=O)N[C@H](C)c1cc(-c2cnn(C)c2)nc2ccccc12 [Example 252, 2-methyl-N—((R)-1-(2-(1-methyl-1H-pyrazol-4-yl)quinolin-4-yl)ethyl)-5-(6-methyl-3,6-diazabicyclo[3.1.1]heptan-3-yl)benzamide] | 0.005
Cc1cc(COCc2cscn2)ccc1C(=O)N[C@H](C)c1cc(-c2cnn(C)c2)nc2ccccc12 [Example 274, (R)-2-methyl-N-(1-(2-(1-methyl-1H-pyrazol-4-yl)quinolin-4-yl)ethyl)-4-((thiazol-4-ylmethoxy)methyl)benzamide] | 0.002
Cc1cnc(N2CC3CCC(C2)N3)cc1C(=O)NC1(c2cc(-c3cnn(C)c3)nc3ccccc23)CC1 [Example 285, 2-(3,8-diazabicyclo[3.2.1]octan-3-yl)-5-methyl-N-(1-(2-(1-methyl-1H-pyrazol-4-yl)quinolin-4-yl)cyclopropyl)isonicotinamide] | 0.003
Cc1cnc(N2CC3CCC(C2)N3C)cc1C(=O)NC1(c2cc(-c3cnn(C)c3)nc3ccccc23)CC1 [Example 287, 5-methyl-N-(1-(2-(1-methyl-1H-pyrazol-4-yl)quinolin-4-yl)cyclopropyl)-2-(8-methyl-3,8-diazabicyclo[3.2.1]octan-3-yl)isonicotinamide] | 0.002
Cc1ccc(N2CC3CC(C2)N3)cc1C(=O)NC1(c2cc(-c3cnn(C)c3)nc3ccccc23)CC1 [Example 289, 5-(3,6-diazabicyclo[3.1.1]heptan-3-yl)-2-methyl-N-(1-(2-(1-methyl-1H-pyrazol-4-yl)quinolin-4-yl)cyclopropyl)benzamide] | 0.001
Cc1ccc(N2CC3CC(C2)N3C)cc1C(=O)NC1(c2cc(-c3cnn(C)c3)nc3ccccc23)CC1 [Example 290, 2-methyl-N-(1-(2-(1-methyl-1H-pyrazol-4-yl)quinolin-4-yl)cyclopropyl)-5-(6-methyl-3,6-diazabicyclo[3.1.1]heptan-3-yl)benzamide] | 0.001

Same assay, conditions: SARS-CoV-2 PLpro 6.25 nM, 25 μM Z-RLRGG-AMC substrate, 60 minute reaction; read-out: IC50

SMILES | IC50 [µM]
Cc1ccc(N2CCN(C)CC2=O)cc1C(=O)N[C@H](C)c1cc(-c2cnn(C)c2)nc2ccccc12 [Example 249, (R)-2-methyl-N-(1-(2-(1-methyl-1H-pyrazol-4-yl)quinolin-4-yl)ethyl)-5-(4-methyl-2-oxopiperazin-1-yl)benzamide] | 0.733
CCOC(=O)[C@@H]1O[C@H]1C(=O)NNC(=O)CCc1ccccc1C(=O)N[C@H](C)c1cc(-c2cnn(C)c2)nc2ccccc12 [Example 250, ethyl (2R,3R)-3-(2-(3-(2-(((R)-1-(2-(1-methyl-1H-pyrazol-4-yl)quinolin-4-yl)ethyl)carbamoyl)phenyl)propanoyl)hydrazine-1-carbonyl)oxirane-2-carboxylate] | 0.002
Cc1cc(C(=O)NCc2nccn2C)ccc1C(=O)NC1(c2cc(-c3cnn(C)c3)nc3ccccc23)CC1 [Example 253] | 0.006
Cc1cc(C(=O)NCc2cscn2)ccc1C(=O)NC1(c2cc(-c3cnn(C)c3)nc3ccccc23)CC1 [Example 254] | 0.005
Cc1ccc(N2CC3CC2CN3)cc1C(=O)N[C@H](C)c1cc(-c2cnn(C)c2)nc2ccccc12 (stereo partly drawn) [Example 255] | 0.019
Cc1ccc(N2CC3CC2CN3C)cc1C(=O)N[C@H](C)c1cc(-c2cnn(C)c2)nc2ccccc12 (stereo partly drawn) [Example 256, 2-methyl-N-((R)-1-(2-(1-methyl-1H-pyrazol-4-yl)quinolin-4-yl)ethyl)-5-(5-methyl-2,5-diazabicyclo[2.2.1]heptan-2-yl)benzamide] | 0.015
CNC(=O)c1cc(-c2cc([C@@H](C)NC(=O)c3cc(CN)ccc3C)c3ccccc3n2)cn1C [Example 257, (R)-4-(4-(1-(5-(aminomethyl)-2-methylbenzamido)ethyl)quinolin-2-yl)-N,1-dimethyl-1H-pyrrole-2-carboxamide] | 0.022
Cc1ccc(CN)cc1C(=O)N[C@H](C)c1cc(-c2cc(C(=O)N(C)C)n(C)c2)nc2ccccc12 [Example 258, (R)-4-(4-(1-(5-(aminomethyl)-2-methylbenzamido)ethyl)quinolin-2-yl)-N,N,1-trimethyl-1H-pyrrole-2-carboxamide] | 0.044
CNC(=O)Cc1ccc(C(=O)N[C@H](C)c2cc(-c3cnn(C)c3)nc3ccccc23)c(C)c1 [Example 259, (R)-2-methyl-N-(1-(2-(1-methyl-1H-pyrazol-4-yl)quinolin-4-yl)ethyl)-4-(2-(methylamino)-2-oxoethyl)benzamide] | 0.147
Cc1cc(CC(=O)N(C)C)ccc1C(=O)N[C@H](C)c1cc(-c2cnn(C)c2)nc2ccccc12 [Example 260, (R)-4-(2-(dimethylamino)-2-oxoethyl)-2-methyl-N-(1-(2-(1-methyl-1H-pyrazol-4-yl)quinolin-4-yl)ethyl)benzamide] | 0.244
Cc1ccc(N2CC3CNCC3C2)cc1C(=O)N[C@H](C)c1cc(-c2cnn(C)c2)nc2ccccc12 (stereo partly drawn) [Example 261] | 0.021
Cc1ccc(N2CC3CN(C)CC3C2)cc1C(=O)N[C@H](C)c1cc(-c2cnn(C)c2)nc2ccccc12 (stereo partly drawn) [Example 262, 2-methyl-N-((R)-1-(2-(1-methyl-1H-pyrazol-4-yl)quinolin-4-yl)ethyl)-5-(5-methylhexahydropyrrolo[3,4-c]pyrrol-2(1H)-yl)benzamide] | 0.008
COC(=O)c1cc(-c2cc([C@@H](C)NC(=O)c3cc(CN)ccc3C)c3ccccc3n2)n(C)c1 [Example 263, methyl(R)-5-(4-(1-(5-(aminomethyl)-2-methylbenzamido)ethyl)quinolin-2-yl)-1-methyl-1H-pyrrole-3-carboxylate] | 0.231
Cc1cc(CN(C)C(=O)c2cscn2)ccc1C(=O)N[C@H](C)c1cc(-c2cnn(C)c2)nc2ccccc12 [Example 264, (R)-N-methyl-N-(3-methyl-4-((1-(2-(1-methyl-1H-pyrazol-4-yl)quinolin-4-yl)ethyl)carbamoyl)benzyl)thiazole-4-carboxamide] | 0.022
Cc1cc(CN(C)C(=O)c2ncc[nH]2)ccc1C(=O)N[C@H](C)c1cc(-c2cnn(C)c2)nc2ccccc12 [Example 265, (R)-N-methyl-N-(3-methyl-4-((1-(2-(1-methyl-1H-pyrazol-4-yl)quinolin-4-yl)ethyl)carbamoyl)benzyl)-1H-imidazole-2-carboxamide] | 0.14
Cc1cc(CN(C)Cc2cscn2)ccc1C(=O)N[C@H](C)c1cc(-c2cnn(C)c2)nc2ccccc12 [Example 266, (R)-2-methyl-4-((methyl(thiazol-4-ylmethyl)amino)methyl)-N-(1-(2-(1-methyl-1H-pyrazol-4-yl)quinolin-4-yl)ethyl)benzamide] | 0.024
CC(=O)N(Cc1ccc(C(=O)N[C@H](C)c2cc(-c3cnn(C)c3)nc3ccccc23)c(C)c1)Cc1cscn1 [Example 267, (R)-2-methyl-N-(1-(2-(1-methyl-1H-pyrazol-4-yl)quinolin-4-yl)ethyl)-4-((N-(thiazol-4-ylmethyl)acetamido)methyl)benzamide] | 0.21
Cc1cc(CN(Cc2cscn2)S(C)(=O)=O)ccc1C(=O)N[C@H](C)c1cc(-c2cnn(C)c2)nc2ccccc12 [Example 268, (R)-2-methyl-N-(1-(2-(1-methyl-1H-pyrazol-4-yl)quinolin-4-yl)ethyl)-4-((N-(thiazol-4-ylmethyl)methylsulfonamido)methyl)benzamide] | 0.139
Cc1cc(C(C)NC(=O)c2cscn2)ccc1C(=O)N[C@H](C)c1cc(-c2cnn(C)c2)nc2ccccc12 (stereo partly drawn) [Example 269, N-(1-(3-methyl-4-(((R)-1-(2-(1-methyl-1H-pyrazol-4-yl)quinolin-4-yl)ethyl)carbamoyl)phenyl)ethyl)thiazole-4-carboxamide] | 0.041
Cc1cc(C(C)NC(=O)c2ncc[nH]2)ccc1C(=O)N[C@H](C)c1cc(-c2cnn(C)c2)nc2ccccc12 (stereo partly drawn) [Example 270, N-(1-(3-methyl-4-(((R)-1-(2-(1-methyl-1H-pyrazol-4-yl)quinolin-4-yl)ethyl)carbamoyl)phenyl)ethyl)-1H-imidazole-2-carboxamide] | 0.037
Cc1cc(C(=O)NCc2nccn2C)ccc1C(=O)N[C@H](C)c1cc(-c2cnn(C)c2)nc2ccccc12 [Example 271] | 0.005
Cc1ccc(N2CCNCC2)cc1C(=O)NC1(c2cc(-c3ccc(C(=O)N(C)C)[nH]3)cc3ccccc23)CC1 [Example 276, N,N-dimethyl-5-(4-(1-(2-methyl-5-(piperazin-1-yl)benzamido)cyclopropyl)naphthalen-2-yl)-1H-pyrrole-2-carboxamide] | 0.003
Cc1ccc(N2CCN(C)CC2)cc1C(=O)NC1(c2cc(-c3cc(C(=O)N(C)C)c[nH]3)cc3ccccc23)CC1 [Example 277, N,N-dimethyl-5-(4-(1-(2-methyl-5-(4-methylpiperazin-1-yl)benzamido)cyclopropyl)naphthalen-2-yl)-1H-pyrrole-3-carboxamide] | 0.002
Cc1cc(CSCc2nccn2C)ccc1C(=O)N[C@H](C)c1cc(-c2cnn(C)c2)nc2ccccc12 [Example 282, (R)-2-methyl-4-((((1-methyl-1H-imidazol-2-yl)methyl)thio)methyl)-N-(1-(2-(1-methyl-1H-pyrazol-4-yl)quinolin-4-yl)ethyl)benzamide] | 0.006
Cc1cc(C[S+]([O-])Cc2nccn2C)ccc1C(=O)N[C@H](C)c1cc(-c2cnn(C)c2)nc2ccccc12 (stereo partly drawn) [Example 283, 2-methyl-4-((((1-methyl-1H-imidazol-2-yl)methyl)sulfinyl)methyl)-N—((R)-1-(2-(1-methyl-1H-pyrazol-4-yl)quinolin-4-yl)ethyl)benzamide] | 0.005
Cc1cnc(N2CC3CCC2CN3)cc1C(=O)NC1(c2cc(-c3cnn(C)c3)nc3ccccc23)CC1 (stereo not drawn) [Example 284, 2-(2,5-diazabicyclo[2.2.2]octan-2-yl)-5-methyl-N-(1-(2-(1-methyl-1H-pyrazol-4-yl)quinolin-4-yl)cyclopropyl)isonicotinamide] | 0.006

From patent publication US20240245673A1, “Papain-like protease (PLpro) inhibitors” (Pfizer Inc., priority 2022, published 2024)
